Results from publication PMC7525011, “Mycobacterium tuberculosis Calcium Pump CtpF Modulates the Autophagosome in an mTOR-Dependent Manner” (Frontiers in Cellular and Infection Microbiology, 2020).

Target: CtpF (Mycobacterium tuberculosis, UniProt P9WPS9)
Conditions: with Ca2+ or Mg2+; 1 mM ATP; 60 mM Tris pH 7.4, 100 mM KCl; described as competitive inhibitor

Sequence of CtpF (P9WPS9 whole entry): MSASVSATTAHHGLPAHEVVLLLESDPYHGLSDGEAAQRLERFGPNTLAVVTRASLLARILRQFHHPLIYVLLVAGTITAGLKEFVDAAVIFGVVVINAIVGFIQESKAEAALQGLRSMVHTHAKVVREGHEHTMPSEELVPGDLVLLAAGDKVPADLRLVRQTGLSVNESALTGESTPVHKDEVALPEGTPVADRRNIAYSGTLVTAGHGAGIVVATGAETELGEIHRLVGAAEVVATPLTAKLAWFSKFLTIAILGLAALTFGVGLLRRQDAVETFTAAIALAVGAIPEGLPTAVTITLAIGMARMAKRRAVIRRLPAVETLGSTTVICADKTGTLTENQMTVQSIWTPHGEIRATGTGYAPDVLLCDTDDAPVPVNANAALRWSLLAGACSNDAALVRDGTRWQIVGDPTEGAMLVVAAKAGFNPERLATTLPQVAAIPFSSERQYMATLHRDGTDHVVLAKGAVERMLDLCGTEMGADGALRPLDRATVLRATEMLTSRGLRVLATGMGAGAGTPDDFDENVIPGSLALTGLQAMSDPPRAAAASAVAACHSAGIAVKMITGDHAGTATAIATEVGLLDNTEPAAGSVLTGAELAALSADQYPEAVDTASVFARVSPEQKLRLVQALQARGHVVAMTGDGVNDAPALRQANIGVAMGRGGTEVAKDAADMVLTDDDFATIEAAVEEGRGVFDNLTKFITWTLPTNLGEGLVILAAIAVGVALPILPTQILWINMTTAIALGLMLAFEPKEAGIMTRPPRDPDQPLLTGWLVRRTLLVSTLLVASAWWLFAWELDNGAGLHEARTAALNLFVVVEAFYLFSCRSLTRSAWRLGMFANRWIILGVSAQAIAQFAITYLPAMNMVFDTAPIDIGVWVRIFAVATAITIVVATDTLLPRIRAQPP

Compound: [O]=[V]([OH])([OH])[OH] [sodium orthovanadate]
- complete inhibition of Pi release: sodium orthovanadate, a competitive inhibitor of ATPase activity was used in the reaction
